According to patent publication US9453006B2, “Crystalline form having specific crystal habit and pharmaceutical composition containing this crystalline form as active ingredient” (POLA PHARMA INC., priority 2013, dated 2016):

How the values were obtained:
Trichomonas = experiment: Anti-Trichomonas effect, number of survived protozoa after 72 hours culture at 37° C. (Example 4); assay type: cell-based; details: for Number of survived protozoa: cultured 72 hours at 37° C.
Experimental: Each of Crystal 1 and Crystal 2 was correctly weighed in an amount of 3.45 mg, which was dissolved in 10 mL of ethanol, in the same manner as in Example 3. After confirming the absence of the crystal by visual observation, 100 μL of the solution was used as an aliquot, and 900 μL of physiological saline was added thereto. The resultant solution was subjected to the sterilizing filtration by using a filter having a pore size of […] a sample or specimen. 0.5 mL of each of the specimens was added to “Trichomonas medium F” (produced by Fuji Pharma Co., Ltd.). Further, 100 μL of Trichomonas culture, which had been precultured and prepared to give 2.7×10^5 individuals/mL by adding the medium, was added, followed by being cultured for 72 hours at 37° C. (final concentration: 2.4 μg/mL). After completing the cultivation, the number of survived individuals of Trichomonas was counted by using a hemocytometer.

[1] = tested on: Trichomonas vaginalis (clinically isolated strain); experiment: Effect on Trichomonas vaginalis, number of survived individuals after 96 hours culture (Example 3); assay type: cell-based; details: for Number of survived individuals of Trichomonas: after 0.22 μm sterilizing filtration, cultured 96 hours
Source text: The effect on Trichomonas vaginalis (clinically isolated strain) of the crystal was investigated while being compared with a crystal having such a crystal habit that the (11-1) plane was the specific crystal growth plane. A solution of 10% ethanol/physiological saline was used as a control.
Crystal of Comparative Example described above was used as the crystal which had such a crystal habit that the (11-1) plane was the specific crystal growth plane. Crystal 2 was used as the crystal which had such a crystal habit that the (011) plane was the specific crystal growth plane.
Each of the crystals of luliconazole was weighed in an amount of 7.02 mg to which 10 mL of ethanol was added to dissolve the crystal. After confirming the absence of the crystal by visual observation, 100 μL of the solution was used as an aliquot, and 900 μL of physiological saline was added thereto. The resultant solution was subjected to the sterilizing filtration by using a filter having a pore size of 0.22 μm to provide a sample of 5.02 μg/mL (final concentration). 250 μL of an aliquot was taken therefrom, to which 250 μL of 10% ethanol/physiological saline was added to provide a sample of 2.51 μg/mL (final concentration).
0.5 mL of each of the samples was added to “Trichomonas medium F” (produced by Fuji Pharma Co., Ltd.), and 100 μL of Trichomonas culture (5×10^3 individuals of Trichomonas) was added thereto, followed by being cultured for 96 hours. After performing cooling for 10 minutes in ice water, the medium was stirred, which was spread on a hemocytometer to count a number of survived individuals of Trichomonas. As for a control, 0.5 mL of 10% ethanol/physiological saline was added in place of the sample. […] Further, according to the fact that the peak area ratio of the (011) plane was 26%, it is possible to estimate and acknowledge that the effect as described above is provided if I(011) with respect to the sum total of I(001), I(100), I(10-1), I(011), I(110), I(11-1), I(10-2), I(11-2), I(020), I(021), I(20-2), I(121), I(013), I(11-3), and I(221) is not less than 25%, provided that integrated intensities of diffraction peaks, which correspond to the (001), (100), (10-1), (011), (110), (11-1), (10-2), (11-2), (020), (021), (20-2), (121), (013), (11-3), and (221) planes, are designated as I(001), I(100), I(10-1), I(011), I(110), I(11-1), I(10-2), I(11-2), I(020), I(021), I(20-2), I(121), I(013), I(11-3), and I(221) respectively in relation to the diffraction peaks detected in a range of 2θ=5 to 35° in a powder X-ray diffraction pattern in which CuKα is used as an X-ray source.

[2] = sample 2.51 μg/mL (final concentration)
[3] = sample 5.02 μg/mL (final concentration)

| Structure (SMILES) | anti-Trichomonas effect (Trichomonas; Crystal 1 compared with Crystal 2) | Number of survived protozoa (Trichomonas; final concentration 2.4 μg/mL) | Number of survived protozoa (Trichomonas; final concentration 4.8 μg/mL) | Number of survived protozoa (Trichomonas; final concentration 9.6 μg/mL) | suppression of the growth of Trichomonas in the vicinity of MIC ([1]; compared with the crystal having the (11-1) plane as specific crystal growth plane) | Number of survived individuals of Trichomonas [1, 2] [individuals/mL] | Number of survived individuals of Trichomonas [1, 3] [individuals/mL] |
| --- | --- | --- | --- | --- | --- | --- | --- |
| N#C/C(=C1/SC[C@@H](c2ccc(Cl)cc2Cl)S1)n1ccnc1 [Crystal 1, luliconazole] | more excellent than that of Crystal 2 | 5.57 ± 0.42 100000 individuals/mL | 0 100000 individuals/mL | 0 100000 individuals/mL | – | – | – |
| N#C/C(=C1/SC[C@@H](c2ccc(Cl)cc2Cl)S1)n1ccnc1 [Crystal 2, luliconazole] | – | 6.57 ± 0.60 100000 individuals/mL | 0 100000 individuals/mL | 0 100000 individuals/mL | significantly excellent | 23333 ± 5773 | 23333 ± 5773 |
| N#C/C(=C1/SC[C@@H](c2ccc(Cl)cc2Cl)S1)n1ccnc1 [Crystal of Comp. Ex., luliconazole, reference compound] | – | – | – | – | – | 116667 ± 15275 | 23333 ± 5773 |
